Data published in the NIST ThermoML archive (doi:10.1016/j.jct.2017.03.026).
Values joined by “and” are separate entries in the source; they are usually repeats but may differ in a detail not shown here. Equal entries are not always repeated.

Assay: molar heat capacity at constant pressure
Conditions: 101.33 kPa, Crystal, Small (less than 1 g) adiabatic calorimetry

O.O.O.O.O.O=S(=O)([O-])[O-].[Cu+2] [copper(II) sulfate pentahydrate]
Conditions	molar heat capacity at constant pressure
287.75 K	289.04 J/K/mol
287.82 K	289.61 J/K/mol
288.14 K	289.34 J/K/mol
288.18 K	290.46 J/K/mol
288.42 K	289.31 J/K/mol
288.47 K	290.31 J/K/mol
288.59 K	291.83 J/K/mol
288.8 K	291.86 J/K/mol
289.09 K	290.24 J/K/mol
289.13 K	293.01 J/K/mol
289.48 K	297.45 J/K/mol
289.75 K	292.88 J/K/mol
289.76 K	282.28 J/K/mol and 282.25 J/K/mol and 292.61 J/K/mol
289.83 K	290.48 J/K/mol
290 K	282.3 J/K/mol
290.23 K	291.98 J/K/mol
290.44 K	291.33 J/K/mol
290.57 K	288.74 J/K/mol
290.91 K	292.31 J/K/mol and 292.23 J/K/mol
291.11 K	292.78 J/K/mol and 291.01 J/K/mol
291.26 K	298.2 J/K/mol
291.62 K	292.93 J/K/mol
291.78 K	291.86 J/K/mol
291.96 K	292.13 J/K/mol
292.07 K	282.87 J/K/mol
292.1 K	293.31 J/K/mol
292.31 K	293.26 J/K/mol
292.46 K	294.11 J/K/mol
292.51 K	284.12 J/K/mol
292.65 K	291.23 J/K/mol
292.99 K	292.66 J/K/mol
293.15 K	293.46 J/K/mol
293.27 K	294.35 J/K/mol
293.33 K	294.9 J/K/mol
293.67 K	295.88 J/K/mol
293.82 K	293.83 J/K/mol
294.03 K	294.9 J/K/mol and 295.65 J/K/mol
294.37 K	295.73 J/K/mol
294.44 K	295.25 J/K/mol
294.48 K	285.79 J/K/mol
294.5 K	295.03 J/K/mol
294.72 K	294.11 J/K/mol
295.06 K	293.36 J/K/mol
295.25 K	295.78 J/K/mol
295.26 K	286 J/K/mol
295.4 K	295.15 J/K/mol
295.61 K	296.03 J/K/mol
295.81 K	299.05 J/K/mol
295.94 K	296.5 J/K/mol
296.17 K	298.85 J/K/mol
296.52 K	298.75 J/K/mol
296.64 K	295.93 J/K/mol
296.79 K	296.15 J/K/mol
296.84 K	287.36 J/K/mol
296.88 K	296.35 J/K/mol
296.93 K	297 J/K/mol
297.22 K	297.15 J/K/mol
297.32 K	296.23 J/K/mol
297.57 K	297.23 J/K/mol
297.91 K	299.05 J/K/mol
297.94 K	297.85 J/K/mol
298 K	296.85 J/K/mol
298.02 K	287.88 J/K/mol
298.15 K	288 J/K/mol
298.25 K	298.42 J/K/mol
298.59 K	299.17 J/K/mol
298.68 K	299.05 J/K/mol
298.94 K	299.4 J/K/mol
299.12 K	298.65 J/K/mol
299.23 K	288.76 J/K/mol
299.29 K	300.47 J/K/mol
299.37 K	298.15 J/K/mol
299.64 K	299.5 J/K/mol
299.82 K	299.2 J/K/mol
300 K	289.3 J/K/mol
300.06 K	299.2 J/K/mol
300.3 K	299.45 J/K/mol
300.75 K	298.85 J/K/mol
300.77 K	289.98 J/K/mol
301.44 K	299.02 J/K/mol
301.47 K	300.17 J/K/mol
301.59 K	289.49 J/K/mol
302.12 K	300.57 J/K/mol
302.65 K	301.05 J/K/mol
302.7 K	301.5 J/K/mol
302.82 K	300.42 J/K/mol
303.5 K	300.72 J/K/mol
303.53 K	291.77 J/K/mol
303.83 K	301.92 J/K/mol
303.92 K	292.06 J/K/mol
304.18 K	301.47 J/K/mol
304.87 K	301.52 J/K/mol
305.01 K	302.77 J/K/mol
305.55 K	302.32 J/K/mol
305.56 K	303.47 J/K/mol
306.19 K	303.64 J/K/mol
306.28 K	293.59 J/K/mol
306.3 K	293.93 J/K/mol and 304.42 J/K/mol
306.99 K	304.54 J/K/mol
307.44 K	304.69 J/K/mol
307.7 K	304.19 J/K/mol
308.38 K	304.52 J/K/mol
308.41 K	305.57 J/K/mol
308.62 K	305.54 J/K/mol
308.68 K	295.75 J/K/mol
309.04 K	295.5 J/K/mol
309.07 K	305.39 J/K/mol
309.75 K	305.67 J/K/mol
309.8 K	305.39 J/K/mol
310 K	296 J/K/mol
310.43 K	305.52 J/K/mol
310.97 K	306.74 J/K/mol
311.08 K	296.13 J/K/mol
311.11 K	306.24 J/K/mol
311.25 K	307.59 J/K/mol
311.79 K	306.69 J/K/mol
311.8 K	297.26 J/K/mol
312.15 K	307.81 J/K/mol
312.47 K	307.31 J/K/mol
313.16 K	307.84 J/K/mol
313.33 K	308.96 J/K/mol
313.44 K	298.8 J/K/mol
313.84 K	308.56 J/K/mol
314.07 K	309.84 J/K/mol
314.51 K	309.76 J/K/mol
314.52 K	309.11 J/K/mol
314.56 K	298.99 J/K/mol
315.19 K	310.48 J/K/mol
315.69 K	310.88 J/K/mol
315.85 K	300.25 J/K/mol
315.89 K	310.18 J/K/mol
316.57 K	310.56 J/K/mol
316.88 K	312.41 J/K/mol and 311.61 J/K/mol
317.31 K	309.31 J/K/mol
317.53 K	300.52 J/K/mol
317.99 K	311.11 J/K/mol
318.06 K	312.53 J/K/mol
318.28 K	301.47 J/K/mol
318.66 K	311.58 J/K/mol
319.25 K	313.46 J/K/mol
319.34 K	313.53 J/K/mol
319.69 K	314.25 J/K/mol
320 K	302.2 J/K/mol
320.02 K	313.28 J/K/mol
320.3 K	302.56 J/K/mol
320.43 K	313.61 J/K/mol
320.7 K	312.78 J/K/mol
320.71 K	302.82 J/K/mol
321.37 K	314.2 J/K/mol
321.6 K	312.51 J/K/mol
322.05 K	315.53 J/K/mol
322.49 K	315.5 J/K/mol
322.74 K	316.33 J/K/mol
322.78 K	316.4 J/K/mol
323.07 K	304.17 J/K/mol
323.15 K	304.37 J/K/mol
323.43 K	315.9 J/K/mol
323.97 K	317.18 J/K/mol
324.11 K	315.95 J/K/mol
